Assays:
[1] = Lipid reduction in the normolipaemic golden hamster; assay type: in vivo; conditions: compared with control group
Procedure: III. Lipid Reduction in the Normolipaemic Golden Hamster This was determined using the method described in J. Lipid. Res. 38, 564-575, (1997). At the end of the experiment the total cholesterol, β-lipoprotein-cholesterol and HDL-cholesterol were determined and compared with the values of a control group which were fed without any test substance. The lipid-lowering activity of the abovementioned compounds E, G and I was tested.

[2] = test system: Cand. albicans ATCC 10231; assay: Fungistatic activity, series dilution test; assay type: cell-based; conditions: Sabouraud broth, 2 to 4 days at 26° C.
Procedure: (§1) V. Determining the Fungistatic Activity
(§2) The fungistatic activity was determined by the series dilution test (microtitre system). Sabouraud broth was used as the nutrient medium. The inoculum amounted to about 10^4 to 10^5 CFU/ml (CFU=colony-forming units); the incubation period was 2 to 4 days at 26° C.
(§3) The lowest concentration which allows no visible growth (minimum inhibitory concentration MIC) was determined.
(§4) The abovementioned compounds B, E, G, I, K, L, N, Q and R were tested. The MIC is given in μg/ml.

[3] = test system: Sacch. carisbergensis ATCC 9080; assay: Fungistatic activity, series dilution test; assay type: cell-based; conditions: Sabouraud broth, 2 to 4 days at 26° C.
Procedure: as §1, §2, §3, §4

[4] = test system: Asp. niger ATCC 16404; assay: Fungistatic activity, series dilution test; assay type: cell-based; conditions: Sabouraud broth, 2 to 4 days at 26° C.
Procedure: as §1, §2, §3, §4

[5] = test system: Trich. mentagrophytes ATCC 9129; assay: Fungistatic activity, series dilution test; assay type: cell-based; conditions: Sabouraud broth, 2 to 4 days at 26° C.
Procedure: as §1, §2, §3, §4

[6] = test system: Rhod. rubra 49; assay: Fungistatic activity, series dilution test; assay type: cell-based; conditions: Sabouraud broth, 2 to 4 days at 26° C.
Procedure: as §1, §2, §3, §4

[7] = test system: Pen. notatum CBS 19746; assay: Fungistatic activity, series dilution test; assay type: cell-based; conditions: Sabouraud broth, 2 to 4 days at 26° C.
Procedure: as §1, §2, §3, §4

[8] = test system: 14C-acetate incorporation into the steroids which can be precipitated with digitonin (cholesterol biosynthesis); assay: Inhibition of 14C-acetate incorporation into the steroids which can be precipitated with digitonin; assay type: cell-based; conditions: for IC50: 14C-acetate incorporation
Description: I. Measuring the Inhibition of ^14C-acetate incorporation into the steroids which can be precipitated with digitonin: The inhibitory effect was investigated using the method described in J. Lipid. Res. 37, 148-157 [1996] at test concentrations of 10^−8 and 10^−9 mol/l.

[9] = molecular target: T1, 2,3-epoxysqualene-lanosterol-cyclase (Rattus norvegicus, UniProt P48450); assay: In-vivo activity in the rat after oral administration: 2,3-epoxysqualene level in the liver
T1 construct: Measuring the in-vivo Activity in the Rat after Oral Administration; from tissue; host or cells: living rat; 2,3-epoxysqualene measured in the liver
T1 sequence (P48450 1-733): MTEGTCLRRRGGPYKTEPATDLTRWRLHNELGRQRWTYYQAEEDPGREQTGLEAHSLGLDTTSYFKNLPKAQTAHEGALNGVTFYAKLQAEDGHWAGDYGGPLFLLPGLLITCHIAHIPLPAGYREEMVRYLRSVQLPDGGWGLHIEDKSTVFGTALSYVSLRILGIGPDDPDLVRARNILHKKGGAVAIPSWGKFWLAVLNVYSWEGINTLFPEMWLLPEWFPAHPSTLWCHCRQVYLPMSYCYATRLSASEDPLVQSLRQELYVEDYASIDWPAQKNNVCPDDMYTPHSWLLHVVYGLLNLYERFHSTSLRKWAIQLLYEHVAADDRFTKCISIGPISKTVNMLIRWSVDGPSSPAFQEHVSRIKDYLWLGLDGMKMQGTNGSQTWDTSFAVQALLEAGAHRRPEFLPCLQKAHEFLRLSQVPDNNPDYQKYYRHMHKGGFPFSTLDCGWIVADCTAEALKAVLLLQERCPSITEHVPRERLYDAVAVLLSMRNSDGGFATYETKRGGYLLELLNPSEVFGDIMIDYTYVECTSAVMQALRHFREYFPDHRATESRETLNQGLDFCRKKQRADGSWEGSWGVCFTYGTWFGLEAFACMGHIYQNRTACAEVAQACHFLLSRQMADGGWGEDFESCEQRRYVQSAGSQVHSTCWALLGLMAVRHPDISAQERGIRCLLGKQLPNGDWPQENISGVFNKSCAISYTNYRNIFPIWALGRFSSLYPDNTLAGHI
Procedure: II. Measuring the in-vivo Activity in the Rat after Oral Administration
Inhibiting the enzyme 2,3-epoxysqualene-lanosterol-cyclase causes an increase in the 2,3-epoxisqualene levels in the liver and plasma. The quantity of 2,3-epoxysqualene formed therefore serves as a direct measurement of the potency on the animal as a whole. The amounts were determined using the method described in J. Lipid. Res. 38, 564-575, [1997] at t=3 or 8 hours after administration of the substance in concentrations of c=0.01, 0.03, 0.1, 0.3 and 1.0 mg/kg. Table 3 which follows gives the results obtained for the abovementioned substances A, B, C, E, G, H, O and R by way of example.
In the control animals there were no measurable 2,3-epoxisqualene levels under these conditions.

[10] = 0.01 mg/kg oral, 3 h after administration
[11] = 0.01 mg/kg oral, 8 h after administration
[12] = 0.03 mg/kg oral, 3 h after administration
[13] = 0.03 mg/kg oral, 8 h after administration
[14] = 0.1 mg/kg oral, 3 h after administration
[15] = 0.1 mg/kg oral, 8 h after administration
[16] = 0.3 mg/kg oral, 3 h after administration
[17] = 0.3 mg/kg oral, 8 h after administration

CN(C)Cc1ccc([C@H]2CC[C@H](N(C)C(=S)Oc3ccc(Cl)cc3)CC2)cc1.Cl [G, trans-O-(4-chlorophenyl)-N-4-[4-(dimethylaminomethyl)-phenyl]cyclohexyl-N-methylthiocarbamate-hydrochloride]
HDL-cholesterol ([1]; dose 0.5 mg/kg/day): −21.1%
Total cholesterol ([1]; dose 0.5 mg/kg/day): −27.7%
β-Lipoprotein-cholesterol ([1]; dose 0.5 mg/kg/day): −40.2%
HDL-cholesterol ([1]; dose 1.5 mg/kg/day): −26.5%
Total cholesterol ([1]; dose 1.5 mg/kg/day): −31.1%
β-Lipoprotein-cholesterol ([1]; dose 1.5 mg/kg/day): −42.2%
HDL-cholesterol ([1]; dose 4.9 mg/kg/day): −24.3%
Total cholesterol ([1]; dose 4.9 mg/kg/day): −26.5%
β-Lipoprotein-cholesterol ([1]; dose 4.9 mg/kg/day): −33.2%
MIC Cand. [2]: 4 µg/mL
MIC Sacc. [3]: 32 µg/mL
MIC Asp. [4]: 4 µg/mL
MIC Trich. [5]: 1 µg/mL
MIC Rhod. [6]: 8 µg/mL
MIC Pen. [7]: 1 µg/mL
IC50 [8]: 0.4 nM
percentage inhibition of 14C-acetate incorporation ([8]; test concentration 10^−8 mol/l): −85%
percentage inhibition of 14C-acetate incorporation ([8]; test concentration 10^−9 mol/l): −43%
2,3-epoxysqualene concentration in the liver (rat) [9, 10]: 5.2 µg/g
2,3-epoxysqualene concentration in the liver (rat) [9, 11]: 30.1 µg/g
2,3-epoxysqualene concentration in the liver (rat) [9, 12]: 12.8 µg/g
2,3-epoxysqualene concentration in the liver (rat) [9, 13]: 42.3 µg/g
2,3-epoxysqualene concentration in the liver (rat) [9, 14]: 66.2 µg/g
2,3-epoxysqualene concentration in the liver (rat) [9, 15]: 115.3 µg/g
2,3-epoxysqualene concentration in the liver (rat) [9, 16]: 57.5 µg/g
2,3-epoxysqualene concentration in the liver (rat) [9, 17]: 225.5 µg/g

CN(C)Cc1ccc([C@H]2CC[C@H](N(C)C(=S)SCc3cccc(F)c3)CC2)cc1.Cl [B, trans-S-(3-fluorobenzyl)-N-4-[4-(dimethylaminomethyl)-phenyl]cyclohexyl-N-methyldithiocarbamate-hydrochloride]
MIC Cand. [2]: 2 µg/mL
MIC Sacc. [3]: 8 µg/mL
MIC Asp. [4]: 2 µg/mL
MIC Trich. [5]: 1 µg/mL
MIC Rhod. [6]: 2 µg/mL
MIC Pen. [7]: 2 µg/mL
percentage inhibition of 14C-acetate incorporation ([8]; test concentration 10^−8 mol/l): −85%
percentage inhibition of 14C-acetate incorporation ([8]; test concentration 10^−9 mol/l): −59%
2,3-epoxysqualene concentration in the liver (rat) [9, 12]: 24.5 µg/g
2,3-epoxysqualene concentration in the liver (rat) [9, 13]: 57.1 µg/g
2,3-epoxysqualene concentration in the liver (rat) [9, 14]: 96.0 µg/g
2,3-epoxysqualene concentration in the liver (rat) [9, 15]: 150.9 µg/g
2,3-epoxysqualene concentration in the liver (rat) [9, 16]: 98.5 µg/g
2,3-epoxysqualene concentration in the liver (rat) [9, 17]: 234.5 µg/g

CCN(CC)Cc1ccc([C@H]2CC[C@H](N(C)C(=O)Oc3ccc(Cl)cc3)CC2)cc1.Cl [L, trans-O-(4-chlorophenyl)-N-4-[4-(diethylaminomethyl)-phenyl]cyclohexyl-N-methylcarbamate-hydrochloride]
MIC Cand. [2]: 32 µg/mL
MIC Sacc. [3]: 128 µg/mL
MIC Asp. [4]: 32 µg/mL
MIC Trich. [5]: 1 µg/mL
MIC Rhod. [6]: 8 µg/mL
MIC Pen. [7]: 64 µg/mL
percentage inhibition of 14C-acetate incorporation ([8]; test concentration 10^−8 mol/l): −83%
percentage inhibition of 14C-acetate incorporation ([8]; test concentration 10^−9 mol/l): −53%

CN(C(=O)Oc1ccc(Cl)cc1)[C@H]1CC[C@H](c2ccc(CN3CCCC3)cc2)CC1.Cl [K, trans-O-(4-chlorophenyl)-N-methyl-N-4-[4-(pyrrolidinomethyl)phenyl]cyclohexylcarbamate-hydrochloride]
MIC Cand. [2]: 64 µg/mL
MIC Sacc. [3]: 128 µg/mL
MIC Asp. [4]: 16 µg/mL
MIC Trich. [5]: 2 µg/mL
MIC Rhod. [6]: 32 µg/mL
MIC Pen. [7]: 8 µg/mL
percentage inhibition of 14C-acetate incorporation ([8]; test concentration 10^−8 mol/l): −81%
percentage inhibition of 14C-acetate incorporation ([8]; test concentration 10^−9 mol/l): −53%

CN(C(=O)Oc1ccc(Cl)cc1)[C@H]1CC[C@H](c2ccc(CN3CCCCC3)cc2)CC1.Cl [I, trans-O-(4-chlorophenyl)-N-methyl-N-4-[4-(piperidinomethyl)phenyl]cyclohexylcarbamate-hydrochloride]
HDL-cholesterol ([1]; dose 0.46 mg/kg/day): −3.3%
Total cholesterol ([1]; dose 0.46 mg/kg/day): −16.1%
β-Lipoprotein-cholesterol ([1]; dose 0.46 mg/kg/day): −26.2%
HDL-cholesterol ([1]; dose 1.34 mg/kg/day): −5.0%
Total cholesterol ([1]; dose 1.34 mg/kg/day): −20.2%
β-Lipoprotein-cholesterol ([1]; dose 1.34 mg/kg/day): −33.7%
HDL-cholesterol ([1]; dose 4.89 mg/kg/day): −16.2%
Total cholesterol ([1]; dose 4.89 mg/kg/day): −25.7%
β-Lipoprotein-cholesterol ([1]; dose 4.89 mg/kg/day): −36.1%
MIC Cand. [2]: 64 µg/mL
MIC Sacc. [3]: 64 µg/mL
MIC Asp. [4]: 256 µg/mL
MIC Trich. [5]: 8 µg/mL
MIC Rhod. [6]: 64 µg/mL
MIC Pen. [7]: 64 µg/mL
percentage inhibition of 14C-acetate incorporation ([8]; test concentration 10^−8 mol/l): −83%
percentage inhibition of 14C-acetate incorporation ([8]; test concentration 10^−9 mol/l): −43%

CN(C)Cc1ccc([C@H]2CC[C@H](N(C)C(=O)Oc3ccc(F)cc3)CC2)cc1.Cl [R, trans-N-4-[4-(dimethylaminomethyl)phenyl]cyclohexyl-O-(4-fluorophenyl)-N-methylcarbamate-hydrochloride]
HDL-cholesterol ([1]; dose 1.73 mg/kg/day): −19.7%
Total cholesterol ([1]; dose 1.73 mg/kg/day): −16.5%
β-Lipoprotein-cholesterol ([1]; dose 1.73 mg/kg/day): −14.3%
HDL-cholesterol ([1]; dose 6.37 mg/kg/day): −20.0%
Total cholesterol ([1]; dose 6.37 mg/kg/day): −27.8%
β-Lipoprotein-cholesterol ([1]; dose 6.37 mg/kg/day): −34.3%
MIC Cand. [2]: 64 µg/mL
MIC Sacc. [3]: 512 µg/mL
MIC Asp. [4]: 16 µg/mL
MIC Trich. [5]: 2 µg/mL
MIC Rhod. [6]: 16 µg/mL
MIC Pen. [7]: 16 µg/mL
IC50 [8]: 0.5 nM
percentage inhibition of 14C-acetate incorporation ([8]; test concentration 10^−8 mol/l): −86%
percentage inhibition of 14C-acetate incorporation ([8]; test concentration 10^−9 mol/l): −63%
2,3-epoxysqualene concentration in the liver (rat) [9, 10]: 5.1 µg/g
2,3-epoxysqualene concentration in the liver (rat) [9, 11]: 25.6 µg/g
2,3-epoxysqualene concentration in the liver (rat) [9, 12]: 38.2 µg/g
2,3-epoxysqualene concentration in the liver (rat) [9, 13]: 67.2 µg/g
2,3-epoxysqualene concentration in the liver (rat) [9, 14]: 53.8 µg/g
2,3-epoxysqualene concentration in the liver (rat) [9, 15]: 152.9 µg/g
2,3-epoxysqualene concentration in the liver (rat) [9, 16]: 79.7 µg/g
2,3-epoxysqualene concentration in the liver (rat) [9, 17]: 191.0 µg/g
2,3-epoxysqualene concentration in the liver (rat) ([9]; 1.0 mg/kg oral, 3 h after administration): 106.2 µg/g
2,3-epoxysqualene concentration in the liver (rat) ([9]; 1.0 mg/kg oral, 8 h after administration): 340.0 µg/g
